Like-named read-outs stand apart in the source and are kept apart here.
Key:
[1] = Cumulative urine excretion of argatroban, by ecarin clotting time (ECT); assay type: in vivo; conditions: pigs, s.c., similar for both formulations
Protocol: The blood samples were drawn into plastic tubes containing 3.13% sodium citrate before dosing and at definite time intervals thereafter. Then, blood samples were centrifuged (1000 g for 10 min) to obtain citrated plasma. Urine samples were also collected using a bladder catheter and frozen at −20°C until further analysis.
Furthermore, antithrombin activity in plasma samples was also determined by ecarin chromogenic assay (ECA).

[2] = cited from earlier work
[3] = pig, in vivo, sc
Excerpt: Furthermore, systemic effects as bleeding were investigated by examination of all major tissues and organs.

[4] = cited from earlier work; remark: listed apart in the source
[5] = after subcutaneous administration

Molecule	administered antithrombotic active amount recovered in urine (cumulative) [1]	solubility in water [2]	Local bleeding, toxic reactions, and other side effects [3]	half-life ([4]; administered intravenously)	half-life [4, 5]	period of stable plasma concentrations and antithrombotic activity [4, 5]
CC1CNc2c(cccc2S(=O)(=O)N[C@@H](CCCNC(=N)N)C(=O)N2CC[C@@H](C)C[C@@H]2C(=O)O)C1 (stereo partly drawn) [Argatroban]	15–20%	about 1 mg·mL^−1	not observed	–	–	–
hirudin	–	–	–	about 60 min	2 h	approximately 12 hours
